Data on eight molecules can be found in ChEMBL document CHEMBL5291721, “A preclinical secondary pharmacology resource illuminates target-adverse drug reaction associations of marketed drugs” (Nat Commun, 2023).

The target in assay [1] is 5-hydroxytryptamine receptor 2B (Homo sapiens, UniProt P41595). It counts as functional, cell-based.
Assay [2] concerns the target Voltage-gated inwardly rectifying potassium channel KCNH2 (Homo sapiens, UniProt Q12809). The assay is classed as functional.
For assay [3], the target named is T1, Amine oxidase [flavin-containing] A (Homo sapiens, UniProt P21397).
T1 sequence (P21397 whole entry): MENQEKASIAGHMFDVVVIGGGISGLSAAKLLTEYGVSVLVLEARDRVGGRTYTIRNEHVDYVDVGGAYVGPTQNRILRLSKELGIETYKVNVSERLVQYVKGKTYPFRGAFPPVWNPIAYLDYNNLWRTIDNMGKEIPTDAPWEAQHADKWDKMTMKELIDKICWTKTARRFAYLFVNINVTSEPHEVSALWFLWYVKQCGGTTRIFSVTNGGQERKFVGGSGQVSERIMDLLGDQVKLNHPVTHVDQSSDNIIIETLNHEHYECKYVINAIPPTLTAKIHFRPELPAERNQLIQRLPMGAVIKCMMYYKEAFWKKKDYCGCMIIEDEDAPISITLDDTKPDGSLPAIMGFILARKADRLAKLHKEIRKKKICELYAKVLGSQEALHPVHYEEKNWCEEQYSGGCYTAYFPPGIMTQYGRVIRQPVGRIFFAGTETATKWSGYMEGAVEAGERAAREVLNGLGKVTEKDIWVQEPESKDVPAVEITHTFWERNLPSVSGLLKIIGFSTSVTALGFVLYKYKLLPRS
The assay is classed as functional.

The target of assay [4] is cGMP-inhibited 3',5'-cyclic phosphodiesterase 3A (Homo sapiens, UniProt Q14432). The assay is classed as functional.
In the next assay the target is Histamine H3 receptor (Homo sapiens, UniProt Q9Y5N1).
The target of assay [5] is Sodium-dependent dopamine transporter (Homo sapiens, UniProt Q01959).
The target in assay [6] is T2, Muscarinic acetylcholine receptor M2 (Homo sapiens, UniProt P08172).
T2 sequence (P08172 whole entry): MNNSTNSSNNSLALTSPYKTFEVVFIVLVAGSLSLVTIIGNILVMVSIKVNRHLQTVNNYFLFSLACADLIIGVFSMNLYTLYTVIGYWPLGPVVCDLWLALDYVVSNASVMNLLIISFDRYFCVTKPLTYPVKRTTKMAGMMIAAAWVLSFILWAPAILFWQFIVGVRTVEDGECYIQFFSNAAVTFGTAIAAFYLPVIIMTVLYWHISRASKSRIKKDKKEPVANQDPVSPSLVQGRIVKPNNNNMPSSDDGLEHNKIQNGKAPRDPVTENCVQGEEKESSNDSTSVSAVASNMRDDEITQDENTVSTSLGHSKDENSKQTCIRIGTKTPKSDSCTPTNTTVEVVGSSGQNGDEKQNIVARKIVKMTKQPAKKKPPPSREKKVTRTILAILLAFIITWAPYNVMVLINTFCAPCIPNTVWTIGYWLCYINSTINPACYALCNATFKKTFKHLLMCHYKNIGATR
It counts as functional, cell-based.

The target of assay [7] is T3, Alpha-2A adrenergic receptor (Homo sapiens, UniProt P08913).
T3 sequence (P08913 whole entry): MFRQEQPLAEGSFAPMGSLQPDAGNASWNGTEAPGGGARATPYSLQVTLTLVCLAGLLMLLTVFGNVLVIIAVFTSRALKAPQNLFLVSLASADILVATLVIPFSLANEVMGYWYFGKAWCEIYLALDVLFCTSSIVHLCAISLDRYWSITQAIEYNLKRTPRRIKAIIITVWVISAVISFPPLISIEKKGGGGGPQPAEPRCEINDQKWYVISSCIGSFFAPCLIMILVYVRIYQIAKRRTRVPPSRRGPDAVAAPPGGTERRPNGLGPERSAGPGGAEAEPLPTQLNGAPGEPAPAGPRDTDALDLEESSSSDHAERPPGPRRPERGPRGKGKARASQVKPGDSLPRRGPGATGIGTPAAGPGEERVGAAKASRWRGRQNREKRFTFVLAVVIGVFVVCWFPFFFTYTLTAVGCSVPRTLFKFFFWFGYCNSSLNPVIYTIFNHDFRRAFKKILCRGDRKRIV

The target in assay [8] is T4, Thromboxane A2 receptor (Homo sapiens, UniProt P21731).
T4 sequence (P21731 whole entry): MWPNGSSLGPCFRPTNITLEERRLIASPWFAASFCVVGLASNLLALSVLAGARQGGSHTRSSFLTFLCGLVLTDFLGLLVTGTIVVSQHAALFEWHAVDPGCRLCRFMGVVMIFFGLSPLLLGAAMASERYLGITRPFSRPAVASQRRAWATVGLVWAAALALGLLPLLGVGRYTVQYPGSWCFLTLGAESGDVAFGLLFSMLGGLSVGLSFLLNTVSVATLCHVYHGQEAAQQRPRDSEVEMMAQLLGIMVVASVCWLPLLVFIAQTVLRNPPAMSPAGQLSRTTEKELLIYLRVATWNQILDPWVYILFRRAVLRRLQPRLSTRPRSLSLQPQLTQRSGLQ
The assay is classed as functional, cell-based.

Assay [9] deals with 3',5'-cyclic-AMP phosphodiesterase 4A (Homo sapiens, UniProt P27815). The assay is classed as functional.
The target in another assay is Prothrombin (Homo sapiens, UniProt P00734). The assay is classed as functional.
In assay [10] the target is T5, 5-hydroxytryptamine receptor 1A (Homo sapiens, UniProt P08908).
T5 sequence (P08908 whole entry): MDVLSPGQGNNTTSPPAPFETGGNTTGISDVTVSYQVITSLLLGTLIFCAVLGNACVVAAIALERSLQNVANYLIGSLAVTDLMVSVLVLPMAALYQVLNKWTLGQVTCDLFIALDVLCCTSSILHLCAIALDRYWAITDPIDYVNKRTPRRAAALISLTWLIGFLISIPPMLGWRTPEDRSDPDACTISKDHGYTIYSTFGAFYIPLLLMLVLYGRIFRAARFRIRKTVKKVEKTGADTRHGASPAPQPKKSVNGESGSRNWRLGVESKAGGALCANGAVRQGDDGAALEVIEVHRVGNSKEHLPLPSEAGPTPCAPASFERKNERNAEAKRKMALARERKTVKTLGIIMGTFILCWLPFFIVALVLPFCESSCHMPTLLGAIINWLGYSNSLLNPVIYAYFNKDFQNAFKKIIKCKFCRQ

For the next assay, the target named is Acetylcholinesterase (Homo sapiens, UniProt P22303). The assay is classed as functional.
The target in assay [11] is Prostaglandin G/H synthase 1 (Homo sapiens, UniProt P23219). The assay is classed as functional.
Assay [12] addresses T2, Muscarinic acetylcholine receptor M2.
The target of assay [13] is T4, Thromboxane A2 receptor. It counts as functional, cell-based. This is another data set of the same source.

A value given as a limit tells only on which side of the number the result lay.
Note: assay procedure not described here.

Sequence of Histamine H3 receptor (Q9Y5N1 whole entry): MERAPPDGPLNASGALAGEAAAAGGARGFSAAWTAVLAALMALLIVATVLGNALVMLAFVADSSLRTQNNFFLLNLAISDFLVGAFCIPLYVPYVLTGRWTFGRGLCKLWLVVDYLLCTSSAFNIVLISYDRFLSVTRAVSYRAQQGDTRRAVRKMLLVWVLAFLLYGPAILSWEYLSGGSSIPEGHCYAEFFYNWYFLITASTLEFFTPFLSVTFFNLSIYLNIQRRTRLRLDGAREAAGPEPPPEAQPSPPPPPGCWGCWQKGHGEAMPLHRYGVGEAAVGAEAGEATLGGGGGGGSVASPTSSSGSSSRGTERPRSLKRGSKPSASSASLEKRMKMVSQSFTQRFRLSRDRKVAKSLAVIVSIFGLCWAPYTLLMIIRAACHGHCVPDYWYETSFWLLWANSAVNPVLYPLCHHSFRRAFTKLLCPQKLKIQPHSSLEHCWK
Sequence of Voltage-gated inwardly rectifying potassium channel KCNH2 (Q12809 whole entry): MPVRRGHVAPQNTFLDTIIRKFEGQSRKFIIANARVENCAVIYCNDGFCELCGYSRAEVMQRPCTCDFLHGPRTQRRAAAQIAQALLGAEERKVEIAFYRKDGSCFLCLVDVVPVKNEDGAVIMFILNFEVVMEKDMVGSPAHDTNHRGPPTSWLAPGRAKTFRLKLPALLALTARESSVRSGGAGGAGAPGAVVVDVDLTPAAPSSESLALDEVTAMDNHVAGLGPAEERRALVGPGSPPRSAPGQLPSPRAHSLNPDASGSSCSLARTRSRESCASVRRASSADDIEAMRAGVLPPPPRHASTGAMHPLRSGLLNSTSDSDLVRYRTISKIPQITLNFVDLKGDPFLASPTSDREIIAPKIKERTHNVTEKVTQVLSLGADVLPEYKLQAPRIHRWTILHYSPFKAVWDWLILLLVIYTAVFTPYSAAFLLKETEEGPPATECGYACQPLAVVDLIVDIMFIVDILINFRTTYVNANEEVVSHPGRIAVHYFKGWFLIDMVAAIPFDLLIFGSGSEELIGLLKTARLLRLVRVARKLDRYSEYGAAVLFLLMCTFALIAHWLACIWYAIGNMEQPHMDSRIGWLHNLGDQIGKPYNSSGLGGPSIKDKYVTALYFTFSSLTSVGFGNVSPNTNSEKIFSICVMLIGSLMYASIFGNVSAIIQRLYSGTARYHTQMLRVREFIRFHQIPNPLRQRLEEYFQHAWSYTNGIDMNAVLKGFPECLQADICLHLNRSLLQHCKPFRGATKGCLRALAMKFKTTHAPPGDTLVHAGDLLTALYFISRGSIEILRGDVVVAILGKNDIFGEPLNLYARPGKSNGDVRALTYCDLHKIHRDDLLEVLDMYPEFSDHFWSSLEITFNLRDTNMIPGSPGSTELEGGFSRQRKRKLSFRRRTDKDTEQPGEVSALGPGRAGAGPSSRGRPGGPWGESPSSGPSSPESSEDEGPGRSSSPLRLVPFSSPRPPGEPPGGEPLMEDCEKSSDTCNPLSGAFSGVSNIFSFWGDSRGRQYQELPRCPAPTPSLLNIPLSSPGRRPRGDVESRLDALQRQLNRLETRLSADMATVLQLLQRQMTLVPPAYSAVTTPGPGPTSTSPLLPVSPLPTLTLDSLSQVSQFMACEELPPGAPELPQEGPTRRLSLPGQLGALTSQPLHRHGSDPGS
Sequence of cGMP-inhibited 3',5'-cyclic phosphodiesterase 3A (Q14432 whole entry): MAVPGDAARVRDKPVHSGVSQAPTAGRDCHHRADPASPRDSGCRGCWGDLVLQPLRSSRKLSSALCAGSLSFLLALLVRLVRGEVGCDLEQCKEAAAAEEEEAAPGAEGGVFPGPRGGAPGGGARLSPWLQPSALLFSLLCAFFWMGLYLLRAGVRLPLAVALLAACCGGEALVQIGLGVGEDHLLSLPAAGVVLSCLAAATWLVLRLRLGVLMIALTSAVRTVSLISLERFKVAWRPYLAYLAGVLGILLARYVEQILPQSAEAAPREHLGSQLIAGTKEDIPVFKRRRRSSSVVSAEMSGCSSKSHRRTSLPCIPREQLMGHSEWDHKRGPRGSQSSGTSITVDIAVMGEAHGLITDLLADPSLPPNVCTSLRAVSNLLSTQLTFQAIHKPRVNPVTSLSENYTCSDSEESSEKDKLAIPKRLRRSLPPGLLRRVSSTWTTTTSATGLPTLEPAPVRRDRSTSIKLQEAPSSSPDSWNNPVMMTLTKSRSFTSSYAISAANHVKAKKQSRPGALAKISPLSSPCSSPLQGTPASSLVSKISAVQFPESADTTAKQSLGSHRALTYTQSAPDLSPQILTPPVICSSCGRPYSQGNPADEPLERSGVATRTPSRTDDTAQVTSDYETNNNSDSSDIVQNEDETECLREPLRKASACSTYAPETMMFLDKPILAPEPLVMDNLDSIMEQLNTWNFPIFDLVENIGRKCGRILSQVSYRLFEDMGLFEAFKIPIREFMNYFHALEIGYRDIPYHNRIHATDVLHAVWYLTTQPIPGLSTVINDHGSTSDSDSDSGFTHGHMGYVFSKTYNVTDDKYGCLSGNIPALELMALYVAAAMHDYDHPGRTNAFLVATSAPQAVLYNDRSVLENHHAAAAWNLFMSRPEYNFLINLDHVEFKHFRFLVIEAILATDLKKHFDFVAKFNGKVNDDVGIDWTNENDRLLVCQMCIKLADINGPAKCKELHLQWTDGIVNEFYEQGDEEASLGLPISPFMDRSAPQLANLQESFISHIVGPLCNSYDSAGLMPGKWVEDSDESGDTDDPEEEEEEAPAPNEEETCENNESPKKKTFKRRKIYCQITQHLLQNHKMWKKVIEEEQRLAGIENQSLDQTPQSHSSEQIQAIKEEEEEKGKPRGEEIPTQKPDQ
Sequence of 5-hydroxytryptamine receptor 2B (P41595 whole entry): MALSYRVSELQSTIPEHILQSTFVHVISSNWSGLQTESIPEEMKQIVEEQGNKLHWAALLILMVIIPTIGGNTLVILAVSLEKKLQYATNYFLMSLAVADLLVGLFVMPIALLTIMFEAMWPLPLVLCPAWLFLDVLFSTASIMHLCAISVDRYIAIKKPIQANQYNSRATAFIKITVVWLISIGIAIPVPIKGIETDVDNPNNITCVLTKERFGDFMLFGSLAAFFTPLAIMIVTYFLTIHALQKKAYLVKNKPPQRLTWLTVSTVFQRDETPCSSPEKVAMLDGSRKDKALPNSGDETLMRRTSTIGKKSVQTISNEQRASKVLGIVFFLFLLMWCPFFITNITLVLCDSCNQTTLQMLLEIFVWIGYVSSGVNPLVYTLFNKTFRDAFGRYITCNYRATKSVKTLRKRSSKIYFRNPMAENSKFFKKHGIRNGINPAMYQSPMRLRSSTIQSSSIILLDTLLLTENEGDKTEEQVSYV
Sequence of Acetylcholinesterase (P22303 whole entry): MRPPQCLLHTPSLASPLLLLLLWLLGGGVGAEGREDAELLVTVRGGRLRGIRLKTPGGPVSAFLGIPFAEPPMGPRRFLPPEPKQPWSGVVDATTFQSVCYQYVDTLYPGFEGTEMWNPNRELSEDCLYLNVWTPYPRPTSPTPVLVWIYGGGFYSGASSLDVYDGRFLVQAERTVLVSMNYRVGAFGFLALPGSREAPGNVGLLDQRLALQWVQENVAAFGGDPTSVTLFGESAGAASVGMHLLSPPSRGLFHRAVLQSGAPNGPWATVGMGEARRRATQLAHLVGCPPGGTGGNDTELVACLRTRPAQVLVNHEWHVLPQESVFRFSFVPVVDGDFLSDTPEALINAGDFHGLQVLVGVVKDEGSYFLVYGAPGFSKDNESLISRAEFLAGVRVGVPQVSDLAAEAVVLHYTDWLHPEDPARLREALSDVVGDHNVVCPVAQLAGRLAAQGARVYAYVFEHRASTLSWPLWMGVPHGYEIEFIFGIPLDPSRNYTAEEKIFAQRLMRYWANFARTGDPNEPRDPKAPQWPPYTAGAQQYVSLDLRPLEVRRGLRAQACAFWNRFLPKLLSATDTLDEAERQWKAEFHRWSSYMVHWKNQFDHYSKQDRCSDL
Sequence of 3',5'-cyclic-AMP phosphodiesterase 4A (P27815 whole entry): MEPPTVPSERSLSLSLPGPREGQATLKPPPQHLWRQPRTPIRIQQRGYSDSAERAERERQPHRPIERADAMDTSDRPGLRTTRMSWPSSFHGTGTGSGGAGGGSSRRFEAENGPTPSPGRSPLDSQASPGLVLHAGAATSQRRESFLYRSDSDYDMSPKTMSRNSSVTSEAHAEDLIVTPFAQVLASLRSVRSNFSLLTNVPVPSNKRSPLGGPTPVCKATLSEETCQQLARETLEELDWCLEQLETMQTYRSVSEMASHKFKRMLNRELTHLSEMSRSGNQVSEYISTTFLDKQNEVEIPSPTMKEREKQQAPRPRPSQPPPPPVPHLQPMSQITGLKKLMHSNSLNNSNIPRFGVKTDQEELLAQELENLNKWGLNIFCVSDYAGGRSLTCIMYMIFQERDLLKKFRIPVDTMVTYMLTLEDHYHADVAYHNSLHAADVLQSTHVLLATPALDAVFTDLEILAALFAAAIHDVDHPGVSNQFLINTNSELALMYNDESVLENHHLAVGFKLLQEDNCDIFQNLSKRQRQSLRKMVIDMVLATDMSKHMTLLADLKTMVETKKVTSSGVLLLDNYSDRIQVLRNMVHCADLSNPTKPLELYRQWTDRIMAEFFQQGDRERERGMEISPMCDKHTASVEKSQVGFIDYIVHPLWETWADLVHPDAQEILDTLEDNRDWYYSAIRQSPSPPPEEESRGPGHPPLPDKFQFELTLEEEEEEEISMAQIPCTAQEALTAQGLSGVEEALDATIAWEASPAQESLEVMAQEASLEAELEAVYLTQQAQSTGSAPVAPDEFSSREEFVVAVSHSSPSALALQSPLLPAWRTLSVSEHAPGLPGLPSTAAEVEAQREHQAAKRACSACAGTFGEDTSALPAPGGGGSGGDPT

In the case of `CC(O)(CS(=O)(=O)c1ccc(F)cc1)C(=O)Nc1ccc(C#N)c(C(F)(F)F)c1` (stereo unspecified) [BICALUTAMIDE], the AC50 (commonly the concentration at which the activity in the assay is half-maximal) was above 30 µM in [1]; above 30 µM in assay [2]; above 30 µM in [3]; above 30 µM in assay [4]; above 30 µM on Histamine H3 receptor; above 30000 nM in assay [5]. Besides, the AC50 in [6] was above 10 µM; in [7], above 30 µM; on Thromboxane A2 receptor [8], above 3 µM; in assay [9] it was above 30 µM; at Prothrombin it was above 30 µM; in assay [10], above 30 µM. The AC50 was above 30 µM on Acetylcholinesterase, above 30 µM in assay [11], above 30 µM in assay [12] and above 10 µM on Thromboxane A2 receptor [13].

As for `N[C@@H](Cc1ccccc1)C(=O)O` [PHENYLALANINE], the AC50 in assay [1] was above 30 µM; in assay [2] it was above 30 µM; in assay [3], above 30 µM; in assay [4], above 30 µM; on Histamine H3 receptor, above 30 µM; in assay [5], above 30000 nM. The AC50 (in assay [7]; on Thromboxane A2 receptor [8]; in [9]; at Prothrombin; in [10]; on Acetylcholinesterase) was above 30 µM throughout. Further, the AC50 (in assay [11]; in assay [12]; at Thromboxane A2 receptor [13]) was above 30 µM each time.

Turning to `CCCn1cnc2c1c(=O)n(CCCCC(C)=O)c(=O)n2C` [PROPENTOFYLLINE], the AC50 was above 30 µM in [1]; above 30 µM in assay [2]; above 30 µM in assay [3]; above 30 µM in assay [4]; above 30 µM at Histamine H3 receptor; above 30000 nM in [5]. Also, the AC50 in assay [7] was above 30 µM; at Thromboxane A2 receptor [8], above 30 µM; in assay [9] it was 8.96 µM; at Prothrombin, above 30 µM; in [10] it was above 30 µM; at Acetylcholinesterase it was above 30 µM. Besides, the AC50 (in assay [11]; in assay [12]; on Thromboxane A2 receptor [13]) was above 30 µM each time.

Consider `Clc1ccc(C(Cn2ccnc2)OCc2csc3c(Cl)cccc23)c(Cl)c1` (stereo unspecified) [SERTACONAZOLE], for which the AC50 in assay [1] is above 30 µM; in assay [2] it was 1.7 µM; in [3], above 30 µM; in assay [4], above 30 µM; at Histamine H3 receptor it was 23.3 µM; in [5] it was 1880 nM. Moreover, the AC50 in assay [7] was 3.8 µM; at Thromboxane A2 receptor [8], 14.5 µM; in assay [9], 17.7 µM; on Prothrombin, above 30 µM; in [10] it was 12.4 µM; at Acetylcholinesterase, above 30 µM. Moreover, the figures for the AC50 (in assay [11]; in assay [12]; on Thromboxane A2 receptor [13]) were 5.34 µM, 6.26 µM and above 30 µM, respectively.

Consider `CC(OCCN1CCCCCC1)(c1ccccc1)c1ccc(Cl)cc1` (stereo unspecified) [SETASTINE], for which the AC50 is above 30 µM in [1]; 0.14 µM in assay [2]; above 30 µM in [3]; above 30 µM in assay [4]; 23.2 µM at Histamine H3 receptor; 2980 nM in assay [5]. In addition, the AC50 was 7.86 µM in assay [7]; 8.8 µM on Thromboxane A2 receptor [8]; above 30 µM in assay [9]; above 30 µM on Prothrombin; 9.59 µM in assay [10]; 9.61 µM on Acetylcholinesterase. The AC50 in assay [11] was above 30 µM; in assay [12] it was 0.393 µM; on Thromboxane A2 receptor [13] it was above 30 µM.

For `CCCSc1nc(N[C@@H]2C[C@H]2c2ccc(F)c(F)c2)c2nnn([C@@H]3C[C@H](OCCO)[C@@H](O)[C@H]3O)c2n1` [TICAGRELOR], the AC50 in assay [1] is above 30 µM; in [2], 27 µM; in assay [3], above 30 µM; in assay [4], 17 µM; at Histamine H3 receptor, above 30 µM; in [5] it was 425 nM. Besides, the AC50 is above 30 µM in assay [7]; 6.38 µM at Thromboxane A2 receptor [8]; 21.3 µM in assay [9]; above 30 µM on Prothrombin; above 30 µM in [10]; above 30 µM on Acetylcholinesterase. In addition, the figures for the AC50 (in [11]; in assay [12]; at Thromboxane A2 receptor [13]) were 26.2 µM, above 30 µM and above 30 µM, respectively.

As for `c1ccc2c(SC3=NCCN3)c[nH]c2c1` [TINAZOLINE], the AC50 in [1] was above 30 µM; in [2], above 30 µM; in [3], 15.9 µM; in assay [4] it was above 30 µM; at Histamine H3 receptor it was above 30 µM; in assay [5] it was above 30000 nM. The AC50 in assay [7] is 0.0098 µM; at Thromboxane A2 receptor [8], above 30 µM; in assay [9], above 30 µM; on Prothrombin, above 30 µM; in assay [10], 0.19 µM; on Acetylcholinesterase, above 30 µM. The AC50 (in assay [11]; in assay [12]; at Thromboxane A2 receptor [13]) was above 30 µM in each case.

For `Cc1ccc(C(=O)C(C)CN2CCCCC2)cc1` (stereo unspecified) [TOLPERISONE], the AC50 in assay [1] is above 30 µM; in [2], above 30 µM; in assay [3], above 30 µM; in [4], above 30 µM; at Histamine H3 receptor it was 4.74 µM; in assay [5], above 30000 nM. Also, the AC50 (in assay [7]; on Thromboxane A2 receptor [8]; in assay [9]; on Prothrombin; in assay [10]; on Acetylcholinesterase) was above 30 µM each time. The AC50 in [11] is above 30 µM; in assay [12] it was 3.7 µM; at Thromboxane A2 receptor [13], above 30 µM.
